The values below come from patent publication US6432881B1 (dated 2002).

As for `Cn1nccc1OCc1c(S(C)(=O)=O)ccc(C(=O)C2C(=O)CC(C)(C)CC2=O)c1Cl` (hydrate or solvate), the melting point (in general, the temperature of the solid-liquid transition) amounted to 82 °C.
